Values of other authors in PubChem BioAssay AID1259409 (Chemical Carcinogenesis Research Information System (CCRIS), 2018).

Test system: rodent chemically induced tumor inhibition, incidence and multiplicity
Test: CCRIS tumor inhibitor studies
Details: Promoter: NONE USED

Compound: CCCCCCCCCCCCCCCC(=O)OC/C=C(C)/C=C/C=C(C)/C=C/C1=C(C)CCCC1(C)C
- tumour outcome (control, treated, inhibition, significance) (Carcinogen: 3-METHYLCHOLANTHRENE, 56-49-5, Dose [Inhibitor]: 6 MG IN 0.1 ML ACETONE STARTING 2 WK AFTER CARCINOGEN TREATMENT AND APPLIED 2/WK DURING WK 3-5 OF THE STUDY AND THEN 1/W, Route [Inhibitor]: DERMAL, Species: MOUSE, Strain/Sex: SWISS/FEMALE, Target Tissue: Type of Lesion: SKIN: CARCINOMA, Dose [Carcinogen]: 0.1 ML OF 0.3% DISSOLVED IN ACETONE APPLIED 2/WK FIRST 5 WK THEN 1/WK FOR WK 6-9 FOLLOWED BY NO FURTHER TREATMENT THROUG): 5/19 (26%), 4/20 (20%), 23%, not calculated
- tumour outcome (control, treated, inhibition, significance) (Carcinogen: 3-METHYLCHOLANTHRENE, 56-49-5, Dose [Inhibitor]: 6 MG IN 0.1 ML ACETONE STARTING 2 WK AFTER CARCINOGEN TREATMENT AND APPLIED 2/WK DURING WK 3-5 OF THE STUDY AND THEN 1/W, Route [Inhibitor]: DERMAL, Species: MOUSE, Strain/Sex: SWISS/FEMALE, Target Tissue: Type of Lesion: SKIN: PAPILLOMA, Dose [Carcinogen]: 0.1 ML OF 0.3% DISSOLVED IN ACETONE APPLIED 2/WK FIRST 5 WK THEN 1/WK FOR WK 6-9 FOLLOWED BY NO FURTHER TREATMENT THROUG): 9/19 (47%), 3/20 (15%), 68%, not calculated
- tumour outcome (control, treated, inhibition, significance) (Carcinogen: 7,12-DIMETHYLBENZ[A]ANTHRACENE, 57-97-6, Dose [Inhibitor]: 0, 5000 IU APPLIED TO EACH CHEEK POUCH 2/WK BEGINNING 15 D POST LAST CARCINOGEN DOSE AND CONTINUING FOR 4.5 MO (STUDY DU, Route [Inhibitor]: DERMAL, Species: HAMSTER, Strain/Sex: SYRIAN/MALE, Target Tissue: Type of Lesion: CHEEK POUCH: TUMOR, Dose [Carcinogen]: 0.125 MG (0.25% LIQUID PARAFFIN SOLUTION) APPLIED TO EACH CHEEK POUCH 2/WK FOR 1 MO): 10/15 (67%), 0/20 (0%), 100%, not calculated
- tumour outcome (control, treated, inhibition, significance) (Carcinogen: 7,12-DIMETHYLBENZ[A]ANTHRACENE, 57-97-6, Dose [Inhibitor]: 0, 5000 IU APPLIED TO EACH CHEEK POUCH 2/WK BEGINNING 15 D POST LAST CARCINOGEN DOSE AND CONTINUING FOR 4.5 MO (STUDY DU, Route [Inhibitor]: DERMAL, Species: HAMSTER, Strain/Sex: SYRIAN/MALE, Target Tissue: Type of Lesion: STOMACH: TUMOR, Dose [Carcinogen]: 0.125 MG (0.25% LIQUID PARAFFIN SOLUTION) APPLIED TO EACH CHEEK POUCH 2/WK FOR 1 MO): 15/15 (100%), 0/20 (0%), 100%, not calculated
- tumour outcome (control, treated, inhibition, significance) (Carcinogen: 7,12-DIMETHYLBENZ[A]ANTHRACENE, 57-97-6, Dose [Inhibitor]: 20000 IU/KG IN DIET BEGINNING 6 WK PRIOR TO CARCINOGEN DOSE AND CONTINUING FOR 21-22 WK POST CARCINOGEN DOSE (STUDY DURA, Route [Inhibitor]: ORAL, Species: RAT, Strain/Sex: SPRAGUE-DAWLEY/MALE, Target Tissue: Type of Lesion: SALIVARY GLAND: TUMOR, Dose [Carcinogen]: 1 MG IN 20 µL OLIVE OIL INJECTED INTO SUBMANDIBULAR GLAND ONCE): 20/28 (71%), 16/29 (55%), 23%, not significant
- tumour outcome (control, treated, inhibition, significance) (Carcinogen: 7,12-DIMETHYLBENZ[A]ANTHRACENE, 57-97-6, Dose [Inhibitor]: 100000 IU/KG IN DIET BEGINNING 6 WK PRIOR TO CARCINOGEN DOSE AND CONTINUING FOR 21-22 WK POST CARCINOGEN DOSE (STUDY DUR, Route [Inhibitor]: ORAL, Species: RAT, Strain/Sex: SPRAGUE-DAWLEY/MALE, Target Tissue: Type of Lesion: SALIVARY GLAND: TUMOR, Dose [Carcinogen]: 1 MG IN 20 µL OLIVE OIL INJECTED INTO SUBMANDIBULAR GLAND ONCE): 20/28 (71%), 17/29 (59%), 17%, not significant
- tumour outcome (control, treated, inhibition, significance) (Carcinogen: BENZO[A]PYRENE, 50-32-8, Dose [Inhibitor]: 50, 200 IU/D IN DRINKING WATER FOR 61 WK BEGINNING POST CARCINOGEN TREATMENT (STUDY DURATION: 66 WK), Route [Inhibitor]: ORAL, Species: MOUSE, Strain/Sex: ICR/MALE, Target Tissue: Type of Lesion: FORESTOMACH: CARCINOMA, Dose [Carcinogen]: 20 MG IN 0.2 ML CORN OIL 2/WK FOR 5 WK): 8/28 (29%), 5/26 (19%), 34%, not significant
- tumour outcome (control, treated, inhibition, significance) (Carcinogen: BENZO[A]PYRENE, 50-32-8, Dose [Inhibitor]: 50, 200 IU/D IN DRINKING WATER FOR 61 WK BEGINNING POST CARCINOGEN TREATMENT (STUDY DURATION: 66 WK), Route [Inhibitor]: ORAL, Species: MOUSE, Strain/Sex: ICR/MALE, Target Tissue: Type of Lesion: FORESTOMACH: PAPILLOMA, Dose [Carcinogen]: 2 MG IN 0.2 ML CORN OIL 2/WK FOR 5 WK): 8/28 (29%), 2/27 (7%), 76%, p<0.05
- tumour outcome (control, treated, inhibition, significance) (Carcinogen: BENZO[A]PYRENE, 50-32-8, Dose [Inhibitor]: 50, 200 IU/D IN DRINKING WATER FOR 61 WK BEGINNING POST CARCINOGEN TREATMENT (STUDY DURATION: 66 WK), Route [Inhibitor]: ORAL, Species: MOUSE, Strain/Sex: ORAL, Target Tissue: Type of Lesion: FORESTOMACH: PAPILLOMA, Dose [Carcinogen]: 20 MG IN O.2 ML CORN OIL 2/WK FOR 5 WK): 26/28 (93%), 23/26 (88%), 5%, not significant
- tumour outcome (control, treated, inhibition, significance) (Carcinogen: BENZO[A]PYRENE, 50-32-8, Dose [Inhibitor]: 50, 200 IU/D IN DRINKING WATER FOR DURATION OF STUDY (STUDY DURATION: 66 WK), Route [Inhibitor]: ORAL, Species: MOUSE, Strain/Sex: ICR/MALE, Target Tissue: Type of Lesion: FORESTOMACH: PAPILLOMA, Dose [Carcinogen]: 2 MG IN 0.2 ML CORN OIL 2/WK FOR 5 WK): 8/28 (29%), 2/27 (7%), 76%, p,0.05
- tumour outcome (control, treated, inhibition, significance) (Carcinogen: BENZO[A]PYRENE, 50-32-8, Dose [Inhibitor]: 50, 200 IU/D IN DRINKING WATER FOR THE DURATION OF STUDY (STUDY DURATION: 66 WK), Route [Inhibitor]: ORAL, Species: MOUSE, Strain/Sex: ICR/MALE, Target Tissue: Type of Lesion: FORESTOMACH: CARCINOMA, Dose [Carcinogen]: 20 MG IN 0.2 ML CORN OIL 2/WK FOR 5 WK): 8/28 (29%), 7/27 (26%), 10%, not significant
- tumour outcome (control, treated, inhibition, significance) (Carcinogen: BENZO[A]PYRENE, 50-32-8, Dose [Inhibitor]: 50, 200 IU/D IN DRINKING WATER FOR THE DURATION OF STUDY (STUDY DURATION: 66 WK), Route [Inhibitor]: ORAL, Species: MOUSE, Strain/Sex: ICR/MALE, Target Tissue: Type of Lesion: FORESTOMACH: PAPILLOMA, Dose [Carcinogen]: 20 MG IN 0.2 ML CORN OIL 2/WK FOR 5 WK): 26/28 (93%), 20/27 (74%), 19%, not significant
- tumour outcome (control, treated, inhibition, significance) (Carcinogen: FIBERGLASS DUST, Dose [Inhibitor]: 50 MG/KG BW IN AQUASOL A PLACEBO, 1/3 D FOR 10 TREATMENTS STARTING 3 D POST CARCINOGEN TREATMENT (STUDY DURATION: 90 D), Route [Inhibitor]: INTRAPERITONEAL, Species: MOUSE, Strain/Sex: STRAIN-A/MALE, Target Tissue: Type of Lesion: LUNG: BRONCHIOGENIC OR SEPTAL CELL TUMOR, Dose [Carcinogen]: 300 MG IN 100 G OF STERILIZED PINE SAWDUST BEDDING CHANGED 1/3 D FOR 30 D STARTING 33 D PRIOR TO START OF AGENT TREATMEN): 6/12 (50%), 1/12 (8%), 84%, not calculated
- tumour outcome (control, treated, inhibition, significance) (Carcinogen: N-METHYL-N'-NITRO-N-NITROSOGUANIDINE, 70-25-7, Dose [Inhibitor]: 0, 150000 IU/KG DIET FOR 37 WK (STUDY DURATION: 38 WK), Route [Inhibitor]: ORAL, Species: RAT, Strain/Sex: WISTAR/MALE, Target Tissue: Type of Lesion: FORESTOMACH: BENIGN PAPILLOMA, Dose [Carcinogen]: 83 UG/ML IN DISTILLED DRINKING WATER FOR 37 WK): 15/51 (29%), 3/28 (11%), 62%, p<0.05
- tumour outcome (control, treated, inhibition, significance) (Carcinogen: N-METHYL-N'-NITRO-N-NITROSOGUANIDINE, 70-25-7, Dose [Inhibitor]: 0, 150000 IU/KG DIET FOR 37 WK (STUDY DURATION: 38 WK), Route [Inhibitor]: ORAL, Species: RAT, Strain/Sex: WISTAR/MALE, Target Tissue: Type of Lesion: GASTROINTESTINAL TRACT (UPPER): MALIGNANT NEOPLASMS, Dose [Carcinogen]: 83 UG/ML IN DISTILLED DRINKING WATER FOR 37 WK): 17/51 (33%), 18/28 (64%), -94%, p<0.05
- tumour outcome (control, treated, inhibition, significance) (Carcinogen: N-METHYL-N-NITROSOUREA, 684-93-5, Dose [Inhibitor]: 0.03 MMOL 3/WK STARTING 12 D THROUGH ABOUT 8 MO AFTER FIRST CARCINOGEN DOSE (STUDY DURATION: APPROXIMATELY 8 MO), Route [Inhibitor]: INTRARECTAL, Species: RAT, Strain/Sex: F344/MALE, Target Tissue: Type of Lesion: COLON: ADENOCARCINOMA, Dose [Carcinogen]: 2.5 MG 1/WK FOR 2 WK): 3/39 (8%), 4/39 (10%), -25%, not significant
- tumour outcome (control, treated, inhibition, significance) (Carcinogen: N-METHYL-N-NITROSOUREA, 684-93-5, Dose [Inhibitor]: 0.03 MMOL 3/WK STARTING 12 D THROUGH ABOUT 8 MO AFTER FIRST CARCINOGEN DOSE (STUDY DURATION: APPROXIMATELY 8 MO), Route [Inhibitor]: INTRARECTAL, Species: RAT, Strain/Sex: F344/MALE, Target Tissue: Type of Lesion: COLON: ADENOMA, Dose [Carcinogen]: 2.5 MG 1/WK FOR 2 WK): 11/39 (28%), 24/39 (62%), -121%, p<0.05
- tumour outcome (control, treated, inhibition, significance) (Carcinogen: N-METHYL-N-NITROSOUREA, 684-93-5, Dose [Inhibitor]: 0.03 MMOL 3/WK STARTING 15 D PRIOR TO THROUGH ABOUT 8 MO AFTER FIRST CARCINOGEN DOSE (STUDY DURATION: APPROXIMATELY 8 MO, Route [Inhibitor]: INTRARECTAL, Species: RAT, Strain/Sex: F344/MALE, Target Tissue: Type of Lesion: COLON: ADENOCARCINOMA, Dose [Carcinogen]: 2.5 MG 1/WK FOR 2 WK): 3/39 (8%), 10/38 (26%), -225%, not significant
- tumour outcome (control, treated, inhibition, significance) (Carcinogen: N-METHYL-N-NITROSOUREA, 684-93-5, Dose [Inhibitor]: 0.03 MMOL 3/WK STARTING 15 D PRIOR TO THROUGH ABOUT 8 MO AFTER FIRST CARCINOGEN DOSE (STUDY DURATION: APPROXIMATELY 8 MO, Route [Inhibitor]: INTRARECTAL, Species: RAT, Strain/Sex: F344/MALE, Target Tissue: Type of Lesion: COLON: ADENOMA, Dose [Carcinogen]: 2.5 MG 1/WK FOR 2 WK): 11/39 (28%), 24/38 (63%), -125%, p<0.05
